Source: the supplement of paper PMC10307832

Key:
Assay in all cases: relative viability (nuclei count vs DMSO), 5 days (fraction); higher = more cells survive
[1] = compound: CCC1=CN=CN=C1N2CCN(CC2)CC3=NC4=C(N3)C=C(C=C4)C(F)(F)F + CCNC(=O)c1noc(-c2cc(C(C)C)c(O)cc2O)c1-c1ccc(CN2CCOCC2)cc1 [Luminespib] (partner 0.01 µM)
Procedure, shortened: (§1)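 One day after seeding in 1536-well plates, lung cancer cell lines were dosed by pin tool. Dosing was either single-drug or a fixed anchor-drug dose plus five library-drug doses (not always all listed) in √10 steps. After 5 days, nuclei were stained in one fix-and-stain step and counted on 4× images, and relative viability is the nuclei count of treated wells over that of vehicle wells, given as the median of duplicate plates.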

Mirin + Vorinostat = compound: N=C1NC(=O)/C(=C/c2ccc(O)cc2)S1 [Mirin] + O=C(CCCCCCC(=O)Nc1ccccc1)NO [Vorinostat] (partner 1 µM)
Procedure, shortened: as §1

[2] = compound: CCn1c(-c2nonc2N)nc2cnc(Oc3cccc(NC(=O)c4ccc(OCCN5CCOCC5)cc4)c3)cc21 + O=C(CCCCCCC(=O)Nc1ccccc1)NO [Vorinostat] (partner 1 µM)
Procedure, shortened: as §1

Mirin + Pictilisib = compound: N=C1NC(=O)/C(=C/c2ccc(O)cc2)S1 [Mirin] + CS(=O)(=O)N1CCN(Cc2cc3nc(-c4cccc5[nH]ncc45)nc(N4CCOCC4)c3s2)CC1 [Pictilisib] (partner 1 µM)
Procedure, shortened: as §1

Cell Line	relative viability ([1]; first compound 0.04 µM)	relative viability ([1]; first compound 0.1265 µM)	relative viability ([1]; first compound 0.4 µM)	relative viability ([1]; first compound 1.265 µM)	relative viability ([1]; first compound 4 µM)	relative viability (Mirin + Vorinostat; first compound 0.25 µM)	relative viability (Mirin + Vorinostat; first compound 0.7906 µM)	relative viability (Mirin + Vorinostat; first compound 2.5 µM)	relative viability (Mirin + Vorinostat; first compound 7.906 µM)	relative viability (Mirin + Vorinostat; first compound 25 µM)	relative viability ([2]; first compound 0.04 µM)	relative viability ([2]; first compound 0.1265 µM)	relative viability ([2]; first compound 0.4 µM)	relative viability ([2]; first compound 1.265 µM)	relative viability ([2]; first compound 4 µM)	relative viability (Mirin + Pictilisib; first compound 0.25 µM)	relative viability (Mirin + Pictilisib; first compound 0.7906 µM)	relative viability (Mirin + Pictilisib; first compound 2.5 µM)	relative viability (Mirin + Pictilisib; first compound 7.906 µM)	relative viability (Mirin + Pictilisib; first compound 25 µM)
201T	1.08	1.04	0.974	0.938	0.96	1.02	1.14	0.956	1.07	1.18	1.07	0.882	0.717	0.876	0.896	0.704	0.668	0.614	0.753	0.67
A549	–	–	–	–	–	–	–	–	–	–	–	–	–	–	–	0.541	0.512	0.55	0.403	0.321
A-427	0.874	0.881	0.908	0.75	0.722	0.84	0.922	0.904	0.878	0.956	0.812	0.733	0.587	0.243	0.284	0.749	–	0.821	0.603	0.783
ABC-1	0.636	–	–	0.504	0.527	1.29	1.12	1.36	0.871	0.772	1.25	0.8	0.822	0.32	0.665	0.923	0.501	0.753	0.695	0.302
BEN	0.227	0.212	0.319	0.289	0.13	0.473	0.58	0.6	0.555	0.542	0.566	0.544	0.371	0.349	0.402	0.484	0.656	0.619	0.416	0.312
CAL-12T	0.803	0.454	0.485	0.273	0.29	0.622	0.868	0.886	0.828	0.697	1.44	0.862	0.731	0.553	0.288	0.535	–	0.561	–	0.368
COR-L23	0.717	0.629	0.641	0.654	0.545	0.453	0.585	0.488	0.327	0.31	0.508	0.309	0.225	0.13	0.113	0.8	0.721	0.854	0.738	0.687
COR-L 105	0.8	1.08	0.77	0.724	0.732	0.822	1.01	0.983	0.758	0.655	0.941	0.785	0.762	0.419	0.412	0.407	0.263	0.397	0.373	0.326
Calu-6	–	–	–	–	–	–	–	–	–	–	–	–	–	–	–	0.997	0.934	0.862	0.761	0.597
ChaGo-K-1	0.566	0.591	0.62	0.548	0.432	0.741	0.652	0.746	0.638	0.596	1	0.684	0.514	0.536	0.55	0.667	–	0.713	0.571	0.693
EBC-1	–	–	–	–	–	–	–	–	–	–	–	–	–	–	–	0.456	0.343	0.378	0.238	0.204
EKVX	0.846	0.83	0.882	–	0.919	0.784	–	0.785	0.935	0.799	0.786	0.365	0.757	0.513	0.647	0.39	0.422	0.396	0.394	0.378
EMC-BAC-2	1.24	1.19	1.2	–	1.14	0.426	0.402	0.493	0.35	0.6	0.438	0.297	0.159	0.147	0.167	0.56	0.546	0.532	0.508	0.52
EPLC-272H	0.24	0.344	0.21	0.25	0.3	0.415	0.549	0.487	0.349	0.192	0.467	0.545	0.425	0.357	0.348	0.35	–	0.284	0.311	0.258
H3255	0.785	0.853	0.72	0.619	0.859	0.547	0.678	0.846	0.789	0.814	0.92	0.743	0.686	0.618	0.568	0.516	0.444	0.493	0.306	0.564
HARA	0.668	0.561	0.682	–	0.555	0.537	0.533	0.567	0.597	0.502	0.524	0.551	0.538	0.577	0.645	0.367	0.353	0.437	0.335	0.169
HCC-15	0.308	0.299	0.27	0.299	0.406	0.902	0.955	0.915	0.838	0.82	0.938	0.785	0.81	0.767	0.718	0.789	0.411	0.665	0.551	0.517
HCC-44	1.02	1.01	1.03	0.88	1.07	1.12	1.2	1.05	1.15	1.35	1.13	1.18	1.14	1.07	1.09	0.7	0.819	0.602	0.541	0.474
HCC-78	–	–	–	–	–	0.41	0.473	0.472	0.399	0.471	0.43	0.42	–	0.505	0.638	0.203	0.2	0.205	0.207	0.215
HCC-366	–	–	–	–	–	0.391	0.203	0.404	0.244	0.413	0.396	0.3	0.137	0.0204	0.0377	0.169	0.17	0.158	0.122	0.0892
HCC-827	0.687	0.588	0.544	–	0.587	0.184	0.863	0.937	0.828	0.987	0.92	0.881	0.806	0.525	0.701	1.16	1.08	1.04	1.03	1.21

Cell Line	relative viability ([1]; first compound 0.04 µM)	relative viability ([1]; first compound 0.1265 µM)	relative viability ([1]; first compound 0.4 µM)	relative viability ([1]; first compound 1.265 µM)	relative viability ([1]; first compound 4 µM)	relative viability (Mirin + Vorinostat; first compound 0.25 µM)	relative viability (Mirin + Vorinostat; first compound 0.7906 µM)	relative viability (Mirin + Vorinostat; first compound 2.5 µM)	relative viability (Mirin + Vorinostat; first compound 7.906 µM)	relative viability (Mirin + Vorinostat; first compound 25 µM)	relative viability ([2]; first compound 0.04 µM)	relative viability ([2]; first compound 0.1265 µM)	relative viability ([2]; first compound 0.4 µM)	relative viability ([2]; first compound 1.265 µM)	relative viability ([2]; first compound 4 µM)	relative viability (Mirin + Pictilisib; first compound 0.25 µM)	relative viability (Mirin + Pictilisib; first compound 0.7906 µM)	relative viability (Mirin + Pictilisib; first compound 2.5 µM)	relative viability (Mirin + Pictilisib; first compound 7.906 µM)	relative viability (Mirin + Pictilisib; first compound 25 µM)
HOP-62	1.11	0.991	0.895	0.954	0.816	0.669	0.527	0.679	0.411	0.603	0.936	0.769	0.521	0.382	0.394	0.554	0.33	0.764	–	0.496
IA-LM	–	–	–	–	–	0.975	1.01	1.01	–	1.17	1.08	0.997	1.03	0.998	1.39	0.399	0.438	0.326	0.349	0.494
LC-2-ad	0.952	1.01	1.01	0.873	0.939	0.641	0.7	0.713	0.624	0.679	0.728	0.618	0.258	0.29	0.277	0.554	0.298	0.497	0.216	0.356
LCLC-97TM1	0.706	0.779	0.724	0.733	0.716	0.887	0.204	0.743	0.697	0.679	1.12	0.856	–	0.705	0.662	0.184	0.128	0.193	0.136	0.149
LCLC-103H	0.948	0.98	0.999	0.886	0.721	0.774	0.695	0.79	0.793	0.868	0.921	0.8	0.55	0.537	0.512	0.63	0.532	0.536	0.714	0.739
LK-2	0.204	0.182	0.159	0.195	0.202	0.204	0.234	0.294	0.207	0.271	0.522	0.37	0.168	0.178	0.156	0.387	–	0.537	0.271	0.222
LOU-NH91	0.341	0.403	0.32	0.323	0.313	0.908	0.902	1	0.843	1.16	1.06	0.824	0.661	0.529	0.548	0.499	–	0.496	0.502	0.46
LU99A	0.247	0.227	0.309	0.22	0.229	0.44	0.44	0.474	0.457	0.33	0.583	0.376	0.3	0.427	0.384	0.282	0.302	0.295	0.283	0.271
LXF-289	0.701	0.64	0.685	0.63	0.676	0.727	0.818	0.713	0.8	0.836	0.862	0.886	0.79	0.777	0.604	0.744	0.747	0.803	0.844	0.701
NCI-H23	0.223	0.219	0.21	0.191	0.213	0.624	–	0.565	0.54	0.601	0.735	0.526	0.3	0.531	0.55	0.483	–	0.385	0.367	0.373
NCI-H322M	0.988	0.846	0.808	0.805	0.918	1	0.87	0.93	1.28	1.11	1.26	1.31	0.856	0.554	0.675	0.5	0.419	0.492	0.567	0.583
NCI-H522	1.16	1.24	1.15	0.867	0.987	1.04	1.1	0.89	0.692	0.695	1.19	0.697	0.783	0.742	0.539	–	–	–	–	–
NCI-H1299	–	–	–	–	–	–	–	–	–	–	–	–	–	–	–	0.811	0.823	0.787	0.688	0.602
NCI-H1563	0.539	0.545	0.529	0.478	0.531	–	–	–	–	–	–	–	–	–	–	0.619	0.618	0.651	0.662	0.538
NCI-H1623	0.44	0.513	0.383	0.476	0.651	–	–	–	–	–	–	–	–	–	–	–	–	–	–	–
NCI-H1648	–	–	–	–	–	0.421	–	0.601	0.424	0.299	0.922	0.472	0.42	1.46	1	–	–	–	–	–
NCI-H1703	–	–	–	–	–	–	–	–	–	–	–	–	–	–	–	0.25	0.252	0.27	–	0.226
NCI-H1792	0.507	0.496	0.427	–	0.42	–	–	–	–	–	–	–	–	–	–	0.269	0.303	0.294	0.262	0.259
NCI-H2342	0.645	0.756	0.619	0.52	0.494	0.852	0.817	0.845	–	0.757	0.834	0.746	0.752	0.468	0.743	–	–	–	–	–
SW 900	0.165	0.194	0.158	0.177	0.195	0.608	0.482	0.423	0.583	0.401	0.651	0.602	0.76	0.61	0.621	–	–	–	–	–
